According to patent US7199132B2, “Tropane analogs and methods for inhibition of monoamine transport” (Organix, Inc., priority 2001, dated 2007):

Columns and labels:
dopamine transporter = target: T1, dopamine transporter (Macaca fascicularis, UniProt Q9GJT6); test: Dopamine transporter assay: inhibition of {3H}WIN 35,428 binding in caudate-putamen membranes; set-up: species or system rhesus or cynomolgus monkey; conditions: for IC50: IC50 (nM) DAT, inhibition of {3H}WIN 35,428 binding, monkey caudate-putamen, mean of 2 or more independent experiments in triplicate; for SERT/DAT: selectivity ratio IC50 SERT / IC50 DAT
T1 construct: The caudate-putamen was dissected from coronal slices and yielded 1.4±0.4 g tissue; Membranes were prepared as described previously; from tissue; host or cells: caudate-putamen membranes of cynomolgus or rhesus monkey brain
T1 sequence (Q9GJT6 whole entry): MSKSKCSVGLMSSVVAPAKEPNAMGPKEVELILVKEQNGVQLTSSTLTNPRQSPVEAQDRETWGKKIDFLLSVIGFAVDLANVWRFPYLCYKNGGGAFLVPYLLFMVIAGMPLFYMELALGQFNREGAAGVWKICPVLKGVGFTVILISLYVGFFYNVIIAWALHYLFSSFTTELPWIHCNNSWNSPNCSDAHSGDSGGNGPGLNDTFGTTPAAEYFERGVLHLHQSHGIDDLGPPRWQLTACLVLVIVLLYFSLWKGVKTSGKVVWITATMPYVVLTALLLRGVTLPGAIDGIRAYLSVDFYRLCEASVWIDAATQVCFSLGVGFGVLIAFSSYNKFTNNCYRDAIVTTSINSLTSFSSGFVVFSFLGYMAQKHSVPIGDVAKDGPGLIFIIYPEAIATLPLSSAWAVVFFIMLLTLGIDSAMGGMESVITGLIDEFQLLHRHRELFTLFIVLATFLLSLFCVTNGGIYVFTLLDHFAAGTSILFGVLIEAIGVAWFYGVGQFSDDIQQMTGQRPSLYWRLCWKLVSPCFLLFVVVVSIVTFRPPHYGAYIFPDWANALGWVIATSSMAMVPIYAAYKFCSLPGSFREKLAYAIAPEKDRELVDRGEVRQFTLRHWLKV

serotonin transporter = target: T2, serotonin transporter (Macaca mulatta, UniProt Q9MYX0); test: Serotonin transporter assay: inhibition of {3H}citalopram binding in caudate-putamen membranes; set-up: species or system rhesus or cynomolgus monkey; conditions: IC50 (nM) SERT, monkey caudate-putamen, mean of 2 or more independent experiments in triplicate
T2 construct: The serotonin transporter was assayed in caudate-putamen membranes using conditions similar to those for the dopamine transporter; from tissue; host or cells: caudate-putamen membranes of cynomolgus or rhesus monkey brain
T2 sequence (Q9MYX0 whole entry): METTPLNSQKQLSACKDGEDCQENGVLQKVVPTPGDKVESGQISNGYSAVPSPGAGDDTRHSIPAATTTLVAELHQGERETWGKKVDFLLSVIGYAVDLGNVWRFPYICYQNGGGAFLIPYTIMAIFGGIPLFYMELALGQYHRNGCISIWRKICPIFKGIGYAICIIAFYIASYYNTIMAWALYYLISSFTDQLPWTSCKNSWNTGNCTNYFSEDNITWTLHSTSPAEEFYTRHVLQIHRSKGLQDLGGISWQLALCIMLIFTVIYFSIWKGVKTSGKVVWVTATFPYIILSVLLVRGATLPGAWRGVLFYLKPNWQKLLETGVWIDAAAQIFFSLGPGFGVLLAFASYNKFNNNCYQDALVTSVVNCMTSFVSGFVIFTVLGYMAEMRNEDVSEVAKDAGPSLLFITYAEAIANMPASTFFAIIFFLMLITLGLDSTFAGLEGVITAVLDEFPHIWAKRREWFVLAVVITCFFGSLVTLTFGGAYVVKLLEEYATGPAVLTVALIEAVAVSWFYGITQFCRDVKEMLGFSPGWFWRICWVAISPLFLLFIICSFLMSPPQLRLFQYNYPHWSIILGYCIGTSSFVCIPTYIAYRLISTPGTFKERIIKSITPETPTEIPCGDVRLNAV

Row | SMILES | IC50 (dopamine transporter) [nM] | SERT/DAT (dopamine transporter) | IC50 (serotonin transporter) [nM] | melting point [°C]
1 | COC(=O)C1=C(c2ccccc2)CC2C(O)CC1N2C (stereo not drawn) [Compound 7d, 2-Carbomethoxy-3-phenyl-6β-hydroxy-8-methyl-8-azabicyclo{3.2.1}oct-2-ene] | > 150000 | 1 | > 100000 | 165 to 167
2 | COC(=O)C1=C(c2ccc3ccccc3c2)CC2C(O)CC1N2C (stereo not drawn) [Compound 7b, 2-Carbomethoxy-3-(2-naphthyl)-6β-hydroxy-8-methyl-8-azabicyclo{3.2.1}oct-2-ene] |  | 1 | 260 | 165 to 167
3 | COC(=O)[C@@H]1[C@H]2[C@H](O)C[C@@H](C[C@@H]1c1ccc(F)cc1)N2C (racemic) [Compound 15c, 2β-Carbomethoxy-3β-(4-fluorophenyl)-7β-hydroxy-8-methyl-8-azabicyclo{3.2.1}octane] |  | >80 | > 10000 | 179.3 to 181.3
4 | COC(=O)[C@@H]1[C@H]2[C@H](O)C[C@@H](C[C@H]1c1ccc(F)cc1)N2C (relative stereo) [Compound 18c, 2β-Carbomethoxy-3α-(4-fluorophenyl)-7β-hydroxy-8-methyl-8-azabicyclo{3.2.1}octane] |  | >120 | > 20000 | 177.2 to 179
5 | COC(=O)[C@H]1[C@@H](c2ccccc2)C[C@@H]2[C@@H](O)C[C@H]1N2C (relative stereo) [Compound 14d, 2β-Carbomethoxy-3β-phenyl-6β-hydroxy-8-methyl-8-azabicyclo{3.2.1}octane] |  | 14 | 88000 | 150 to 152
6 | COC(=O)C1C(c2ccc(F)cc2)CC2C(O)CC1N2C (stereo not drawn) [Compound 14c, 2β-Carbomethoxy-3β-(4-fluorophenyl)-6β-hydroxy-8-methyl-8-azabicyclo{3.2.1}octane] |  | >42 | > 20000 | 162 to 164
7 | COC(=O)[C@@H]1[C@H]2C(=O)C[C@@H](C[C@H]1c1ccc(Cl)c(Cl)c1)N2C (relative stereo) [Compound 20, 2β-Carbomethoxy-3α-(3,4-dichlorophenyl)-8-methyl-8-azabicyclo{3.2.1}oct-7-one] | 14.2 |  | 7040 | 163.5 to 164.5
8 | COC(=O)[C@@H]1[C@H]2C[C@H](O)[C@@H](C[C@H]1c1ccc3ccccc3c1)N2C (relative stereo) [Compound 17b, 2β-Carbomethoxy-3α-(2-naphthyl)-6β-hydroxy-8-methyl-8-azabicyclo{3.2.1}octane] |  | 6 | 180 | 93.5 to 94.5
9 | CCC(=O)[C@@H]1[C@H]2[C@H](O)C[C@@H](C[C@@H]1c1ccc(Cl)c(Cl)c1)N2C (relative stereo) [Compound 23, 1-{3β-(3,4-Dichlorophenyl)-7β-hydroxy-8-methyl-8-azabicyclo{3.2.1}oct-2-yl}propan-1-one] | 0.81 |  | 97 | 195.5 to 196.5
10 | COC(=O)C1=C(c2ccc3ccccc3c2)CC2CC(O)C1N2C (stereo not drawn) [Compound 8b, 2-Carbomethoxy-3-(2-naphthyl)-7β-hydroxy-8-methyl-8-azabicyclo{3.2.1}oct-2-ene] |  | 15 | 677 | 164.2 to 165.2
11 | CCC(=O)[C@@H]1[C@H]2[C@H](O)C[C@@H](C[C@H]1c1ccc(Cl)c(Cl)c1)N2C (relative stereo) [Compound 26, 1-{3α-(3,4-Dichlorophenyl)-7β-hydroxy-8-methyl-8-azabicyclo{3.2.1}oct-2-yl}propan-1-one] | 1.1 |  | 2520 | 113.1 to 114.1
12 | COC(=O)C1=C(c2ccccc2)C[C@@H]2C[C@@H](O)[C@H]1N2C (racemic) [Compound 8d, 2-Carbomethoxy-3-phenyl-7β-hydroxy-8-methyl-8-azabicyclo{3.2.1}oct-2-ene] | > 10000 | 1 | > 10000 | 113 to 114
13 | COC(=O)[C@@H]1[C@H]2[C@H](O)C[C@@H](C[C@@H]1c1ccc3ccccc3c1)N2C (relative stereo) [Compound 15b, 2β-Carbomethoxy-3β-(2-naphthyl)-7β-hydroxy-8-methyl-8-azabicyclo{3.2.1}octane] |  | 4 | 5.57 | 207.5 to 208.5
14 | COC(=O)[C@H]1[C@@H](c2ccc(Cl)c(Cl)c2)C[C@@H]2[C@@H](O)C[C@H]1N2C (relative stereo) [Compound 14a, 2β-Carbomethoxy-3β-(3,4-dichlorophenyl)-6β-hydroxy-8-methyl-8-azabicyclo{3.2.1}octane] |  | 55 | 166 | 93.5 to 95.5
15 | COC(=O)[C@H]1[C@@H](c2ccc3ccccc3c2)C[C@@H]2[C@@H](O)C[C@H]1N2C (relative stereo) [Compound 14b, 2β-Carbomethoxy-3β-(2-naphthyl)-6β-hydroxy-8-methyl-8-azabicyclo{3.2.1}octane] |  | 4 | 34.2 | 84 to 86
